This note sets out measurements from ChEMBL document CHEMBL1154111, “Potent, orally bioavailable, liver-selective stearoyl-CoA desaturase (SCD) inhibitors” (Bioorg Med Chem Lett, 2009).

The IC50 is the point on the concentration scale where inhibition reaches its midpoint. By AUC is commonly meant concentration integrated over time. Usually Cmax stands for the peak of the concentration-time curve. A word on the Papp B→A: it is the apparent permeability from the basolateral to the apical side of a cell layer. Broadly, the Papp A→B is the apparent permeability from the apical to the basolateral side of a cell layer. What is called clearance is a measure of how efficiently the substance is removed, as volume per time. Usually bioavailability stands for dose-corrected exposure relative to a reference, in per cent.

The structures appear in SMILES notation. Bounds are passed on as bounds.

In one series the target is T1, Acyl-CoA desaturase 1 (Rattus norvegicus, UniProt P07308).
T1 sequence (P07308 whole entry): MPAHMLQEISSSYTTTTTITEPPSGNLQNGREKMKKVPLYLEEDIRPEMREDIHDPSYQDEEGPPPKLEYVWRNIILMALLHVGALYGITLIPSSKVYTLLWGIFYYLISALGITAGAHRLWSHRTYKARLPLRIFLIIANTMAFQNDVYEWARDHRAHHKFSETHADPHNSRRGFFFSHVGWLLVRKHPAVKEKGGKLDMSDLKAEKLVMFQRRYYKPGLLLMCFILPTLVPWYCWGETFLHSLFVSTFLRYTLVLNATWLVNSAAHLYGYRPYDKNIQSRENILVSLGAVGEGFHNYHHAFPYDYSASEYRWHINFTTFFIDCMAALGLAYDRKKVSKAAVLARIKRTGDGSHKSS
The series can be described thus: Inhibition of stearoyl-CoA delta9 desaturase in rat microsome.

The target of the next series is T2, Stearoyl-CoA desaturase (Homo sapiens, UniProt O00767).
T2 sequence (O00767 whole entry): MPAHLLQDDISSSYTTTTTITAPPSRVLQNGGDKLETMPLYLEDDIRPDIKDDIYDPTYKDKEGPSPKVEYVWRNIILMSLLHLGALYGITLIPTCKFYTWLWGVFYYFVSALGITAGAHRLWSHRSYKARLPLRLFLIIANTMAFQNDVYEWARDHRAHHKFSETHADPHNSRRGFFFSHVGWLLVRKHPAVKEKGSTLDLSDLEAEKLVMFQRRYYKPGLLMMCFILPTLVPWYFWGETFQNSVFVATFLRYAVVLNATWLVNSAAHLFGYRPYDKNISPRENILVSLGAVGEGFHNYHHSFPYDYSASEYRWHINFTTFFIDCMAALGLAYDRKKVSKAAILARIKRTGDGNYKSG
The experiment in a line: Inhibition of stearoyl-CoA delta9 desaturase in human HepG2 cells. The series is classed as cell-based.

For series [1], the system named is Rattus norvegicus. The series can be described thus: Dose normalized AUC in Sprague-Dawley rat at 1 mg/kg, po. The series is classed as ADME, organism-based. On the set-up: dose 1 mg/kg, route oral. The conditions noted are these: in vivo.
The nature of series [2]: Terminal volume of distribution in Sprague-Dawley rat at 1.5 mg/kg, po and 1 mg/kg, iv. The format is ADME, organism-based. The conditions noted are these: in vivo, read-out: Vbeta.
Series [3] is described as follows: Cmax in Sprague-Dawley rat at 1.5 mg/kg, po. Also on record: dose 1.5 mg/kg, route oral. The format is ADME, organism-based. The settings on record: in vivo.
Series [4] can be described thus: Metabolic stability in human liver microsome after 30 mins. The series is classed as ADME. The conditions noted are these: liver microsomes, read-out: Stability. In general terms: Liver microsomes are vesicles of endoplasmic reticulum, rich in cytochrome P450 enzymes.
Series [5] is described as follows: Apparent permeability from basolateral to apical side of human Caco-2 cells. The format is ADME, cell-based. A general note: Caco-2 cells form a polarised layer with tight junctions and transporters.
A short description of series [6]: Apparent permeability from apical to basolateral side of human Caco-2 cells. The format is ADME, cell-based.
For series [7], the system named is Rattus norvegicus. The series can be described thus: Reduction in liver triglyceride level in high-carbohydrate diet-fed Sprague-Dawley rat at 20 mg/kg, po, BID after 5 days measured after 4 hrs of last dose relative to control. The series is classed as functional. Also on record: scale not given: the % may be the effect or the level left.
Series [8] relates to Rattus norvegicus. The series can be described thus: Inhibition of stearoyl-CoA delta9 desaturase in high-carbohydrate diet-fed Sprague-Dawley rat dosed orally BID for 5 days assessed as reduction in liver palmitoleic and vaccenic acid level. The series is classed as functional, organism-based.
The nature of series [9]: Plasma clearance in Sprague-Dawley rat plasma at 1 mg/kg, iv. The format is ADME, organism-based. On the set-up: dose 1 mg/kg, route intravenous.
In series [10] the target is Acyl-CoA (8-3)-desaturase (Rattus norvegicus, UniProt Q920R3). The experiment in a line: Inhibition of stearoyl-CoA delta5 desaturase in rat microsome.
In series [11] the test system is Rattus norvegicus. The experiment in a line: Inhibition of stearoyl-CoA delta9 desaturase in high-carbohydrate diet-fed Sprague-Dawley rat dosed orally BID for 5 days assessed as reduction in plasma palmitoleic and vaccenic acid level. The series is classed as functional, organism-based.
Series [12] is described as follows: Metabolic stability in Sprague-Dawley rat liver microsome after 30 mins. The format is ADME. The conditions noted are these: liver microsomes, read-out: Stability.
Series [13] can be described thus: Oral bioavailability in Sprague-Dawley rat at 1.5 mg/kg. The format is ADME, organism-based. The settings on record: in vivo.
The next series deals with Acyl-CoA 6-desaturase (Rattus norvegicus, UniProt Q9Z122). The experiment in a line: Inhibition of stearoyl-CoA delta6 desaturase in rat microsome.
The nature of series [14]: Elimination half life in Sprague-Dawley rat at 1 mg/kg, iv. The format is ADME, organism-based. Also on record: dose 1 mg/kg, route intravenous. The settings on record: in vivo, read-out: beta t1/2 (converted).

Acyl-CoA (8-3)-desaturase, sequence (Q920R3 whole entry): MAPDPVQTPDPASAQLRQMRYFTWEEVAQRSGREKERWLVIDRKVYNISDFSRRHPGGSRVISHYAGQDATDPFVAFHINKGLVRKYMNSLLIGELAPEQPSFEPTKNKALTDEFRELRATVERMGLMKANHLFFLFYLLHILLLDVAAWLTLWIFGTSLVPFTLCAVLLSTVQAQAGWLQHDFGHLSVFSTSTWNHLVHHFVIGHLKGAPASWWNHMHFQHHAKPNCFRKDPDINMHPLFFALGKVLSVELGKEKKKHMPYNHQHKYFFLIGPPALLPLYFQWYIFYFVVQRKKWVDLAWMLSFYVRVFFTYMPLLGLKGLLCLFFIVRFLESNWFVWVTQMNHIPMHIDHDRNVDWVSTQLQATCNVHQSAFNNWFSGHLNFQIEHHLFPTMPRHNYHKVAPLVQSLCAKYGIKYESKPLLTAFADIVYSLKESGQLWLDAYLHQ
Acyl-CoA 6-desaturase, sequence (Q9Z122 whole entry): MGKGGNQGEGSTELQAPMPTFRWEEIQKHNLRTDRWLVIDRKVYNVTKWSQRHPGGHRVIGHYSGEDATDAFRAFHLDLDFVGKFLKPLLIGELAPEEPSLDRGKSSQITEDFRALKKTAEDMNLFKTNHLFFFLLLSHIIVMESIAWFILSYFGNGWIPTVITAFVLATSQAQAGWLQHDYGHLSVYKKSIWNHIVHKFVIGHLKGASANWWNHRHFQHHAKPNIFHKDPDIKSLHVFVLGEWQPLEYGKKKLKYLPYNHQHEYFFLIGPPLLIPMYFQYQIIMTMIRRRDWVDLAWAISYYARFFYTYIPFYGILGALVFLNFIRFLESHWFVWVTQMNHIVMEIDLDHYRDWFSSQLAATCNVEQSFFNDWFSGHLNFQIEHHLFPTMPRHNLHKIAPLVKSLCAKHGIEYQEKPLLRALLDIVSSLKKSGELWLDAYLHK

`CC(=O)NCCn1c(=O)c(C)nc2ccc(NCc3cccc(C(F)(F)F)c3)cc21`: the IC50 against Acyl-CoA desaturase 1 came out at 162 nM.

Consider `O=C(CO)Nc1ccc2ncn(Cc3ccc(Cl)c(Cl)c3)c(=O)c2c1`, for which the IC50 against Stearoyl-CoA desaturase is 119 nM. The exposure (AUC) with Rattus norvegicus [1] came out at 935 ng·h/mL. Besides, in series [2], the Vd worked out at 2.06 L/kg. This compound also displayed a maximum concentration (Cmax) in [3] of 360 ng/mL.

Compound `CC(C)(C)c1nc2ccc(NCc3cccc(C(F)(F)F)c3)cc2n(CCNC(=O)CO)c1=O` gave an IC50 at Acyl-CoA desaturase 1 greater than 3000 nM.

At Acyl-CoA desaturase 1, `Cc1nc2ccc(NCc3cccc(C(F)(F)F)c3)cc2n(CCNC(=O)CCO)c1=O` registered an IC50 of 1100 nM.

On to `COc1ccc(-c2nc3ccc(NCc4cccc(C(F)(F)F)c4)cc3n(CCNC(C)=O)c2=O)cc1`, for which the IC50 against Acyl-CoA desaturase 1 amounted to 93 nM; at Stearoyl-CoA desaturase, 33 nM.

`Cc1nc2ccc(NCc3cccc(C(F)(F)F)c3)cc2n(CCNC(=O)CO)c1=O`: the IC50 against Acyl-CoA desaturase 1 was 38 nM; in [10], greater than 30000 nM; on Acyl-CoA 6-desaturase, greater than 30000 nM. The remaining at 0.5 h in [4] was 56%; in series [12], 54%. In addition, in series [5], the Papp B→A turned out to be 48.2 ×10⁻⁶ cm/s. In [6], the apical-to-basolateral permeability (Papp A→B) is 6.8 ×10⁻⁶ cm/s. Moreover, the AUC in the series on Rattus norvegicus [1] came to 148 ng·h/mL. Moreover, the Activity is 50% in the series with Rattus norvegicus [7], “Dose-dependent effect” with Rattus norvegicus [8] and “Dose-dependent effect” in the series with Rattus norvegicus [11]. The clearance in [9] worked out at 88.1 mL/min/kg. The Vd in series [2] was determined as 7.22 L/kg. In addition, the bioavailability in series [13] came to 78%. Further, the Cmax in [3] worked out at 374 ng/mL. Moreover, in series [14], the half-life was 0.95 h.

`Cc1nc2ccc(NCc3cccc(C(F)(F)F)c3)cc2n(CCNC(=O)C(O)CO)c1=O` (racemic): the IC50 on Acyl-CoA desaturase 1 stood at 268 nM; against Stearoyl-CoA desaturase, 68 nM.

The compound `O=C(CO)Nc1ccc2ncn(Cc3ccc(Cl)c(C(F)(F)F)c3)c(=O)c2c1` showed an exposure (AUC) in the series on Rattus norvegicus [1] of 451 ng·h/mL. Besides, the Vd in series [2] was found to be 1.46 L/kg. For the same compound, the peak level in [3] (Cmax) was 439 ng/mL.

For `Cc1nc2ccc(NCc3cccc(C(F)(F)F)c3)cc2n(CCNC(N)=O)c1=O`, the IC50 at Acyl-CoA desaturase 1 is 15 nM; at Stearoyl-CoA desaturase it was greater than 1000 nM.

At Acyl-CoA desaturase 1, `Cc1nc2ccc(NCc3cccc(C(F)(F)F)c3)cc2n(CCNC(=O)[C@@H](C)O)c1=O` came in with an IC50 of 3900 nM.

In the case of `CC1(C)Oc2ccc(NCc3ccc(Cl)c(Cl)c3)cc2N(CCNC(=O)CO)C1=O`, at Acyl-CoA desaturase 1, the IC50 amounted to 12 nM. Moreover, the remaining at 0.5 h in series [4] was 3.1%; in [12], 9.6%.

For `O=C(CO)NCCN1C(=O)COc2ccc(NCc3ccc(Cl)c(Cl)c3)cc21`, the remaining at 0.5 h in series [4] was 32%; in series [12], 14%. Also, the half-maximal inhibitory concentration (IC50) on Stearoyl-CoA desaturase was determined as 0.5 nM. Besides, the exposure (AUC) with Rattus norvegicus [1] came out at 122 ng·h/mL. Further, in [9], the clearance was 53 mL/min/kg. In addition, the Vd in series [2] is 4.89 L/kg. The same compound returned a bioavailability in [13] of 39%. The highest level in [3] (Cmax) was 427 ng/mL. For the same compound, the half-life in [14] is 1.07 h.

With `O=C(CO)NCCn1c(=O)c(C(F)(F)F)nc2ccc(NCc3cccc(C(F)(F)F)c3)cc21`, the IC50 stood at 1.9 nM against Acyl-CoA desaturase 1 and 2.7 nM at Stearoyl-CoA desaturase. Besides, the remaining at 0.5 h in series [4] was found to be 19%; in [12], 77%.

As for `CC(C)c1nc2ccc(NCc3cccc(C(F)(F)F)c3)cc2n(CCNC(=O)CO)c1=O`, half-maximal inhibition against Acyl-CoA desaturase 1 (IC50) required 2800 nM.

Consider `COc1ccc(-c2nc3ccc(NCc4ccc(Cl)c(Cl)c4)cc3n(CCNC(C)=O)c2=O)cc1`, for which the concentration for half-maximal inhibition (IC50) at Acyl-CoA desaturase 1 was found to be 110 nM. Moreover, the values for the remaining at 0.5 h in [4] and in series [12] were 83% and 54%, respectively. In the series with Rattus norvegicus [1], the AUC was determined as 0 ng·h/mL.

For `Cc1nc2ccc(NCc3cccc(C(F)(F)F)c3)cc2n(CCNC(=O)[C@H](C)O)c1=O`, the midpoint of inhibition against Acyl-CoA desaturase 1, the IC50, lay at 8000 nM.

`CC1Oc2ccc(NCc3ccc(Cl)c(Cl)c3)cc2N(CCNC(=O)CO)C1=O` (racemic) returned an IC50 on Acyl-CoA desaturase 1 of 80 nM. Further, the figures for the remaining at 0.5 h in [4] and in series [12] were 2.3% and 1.5%, respectively.

Take `COc1ccc(-c2nc3ccc(NCc4ccc(Cl)c(C(F)(F)F)c4)cc3n(CCNC(C)=O)c2=O)cc1`: the half-inhibitory concentration (IC50) at Acyl-CoA desaturase 1 came out at 0.6 nM.
